Where a SMILES comes first, the peptide text is derived from it. [ ]: non-standard residue; d: D form. Trp(1-OMe) = COn1cc(C[C@H](N)C(=O)O)c2ccccc21; Asu = N[C@@H](CCCCCC(=O)O)C(=O)O; dPip = O=C(O)[C@H]1CCCCN1
Assays:
[1] = tested on: Plasmodium falciparum; test: Antiplasmodial activity against Plasmodium falciparum NF54 assessed as [3H]-hypoxanthine incorporation after 48 hrs by liquid scintillation counting analysis; assay type: functional, organism-based
[2] = tested on: Plasmodium falciparum; test: Antiplasmodial activity against chloroquine-resistant Plasmodium falciparum Dd2 assessed as parasite growth inhibition after 48 hrs by light microscopic analysis; assay type: functional, organism-based; details: Dd2, 48 h

## COn1cc(C[C@@H]2NC(=O)[C@H](CCCCCC(=O)O)NC(=O)[C@H]3CCCCN3C(=O)[C@H](Cc3ccccc3)NC2=O)c2ccccc21 (cyclo([Asu][Trp(1-OMe)]F[dPip]))
[1]
  IC50: 670 nM

## CCC(=O)CCCCC[C@@H]1NC(=O)[C@H]2CCCCN2C(=O)[C@H]([C@@H](C)CC)NC(=O)[C@H](Cc2cn(OC)c3ccccc23)NC1=O [APICIDIN]
[2]
  IC50: 200 nM
